Tests used:
Format in all cases: ADME
Albumin [1] = biological target: T1, Albumin (Homo sapiens, UniProt P02768); assay: Binding affinity to human serum albumin in human plasma assessed as protein N-homocysteinylation level at 37 degC for 27 hrs by SDS-PAGE-based 19F-NMR spectroscopy
Albumin [2] = biological target: T1, Albumin; assay: Binding affinity to human serum albumin in phosphate buffer assessed as N-homocysteinylation of protein by MALDI-TOF scpectroscopy; details: isolated protein
Albumin [3] = biological target: T1, Albumin; assay: Binding affinity to human serum albumin in phosphate buffer assessed as N-homocysteinylation of protein at 6.2 mM at pH 7.43 at 37 degC after 18 hrs by SDS-PAGE-based 19F-NMR spectroscopy; details: isolated protein, pH 7.43, 18 h, 6200 µM

Measured: Activity

T1 sequence (P02768 whole entry): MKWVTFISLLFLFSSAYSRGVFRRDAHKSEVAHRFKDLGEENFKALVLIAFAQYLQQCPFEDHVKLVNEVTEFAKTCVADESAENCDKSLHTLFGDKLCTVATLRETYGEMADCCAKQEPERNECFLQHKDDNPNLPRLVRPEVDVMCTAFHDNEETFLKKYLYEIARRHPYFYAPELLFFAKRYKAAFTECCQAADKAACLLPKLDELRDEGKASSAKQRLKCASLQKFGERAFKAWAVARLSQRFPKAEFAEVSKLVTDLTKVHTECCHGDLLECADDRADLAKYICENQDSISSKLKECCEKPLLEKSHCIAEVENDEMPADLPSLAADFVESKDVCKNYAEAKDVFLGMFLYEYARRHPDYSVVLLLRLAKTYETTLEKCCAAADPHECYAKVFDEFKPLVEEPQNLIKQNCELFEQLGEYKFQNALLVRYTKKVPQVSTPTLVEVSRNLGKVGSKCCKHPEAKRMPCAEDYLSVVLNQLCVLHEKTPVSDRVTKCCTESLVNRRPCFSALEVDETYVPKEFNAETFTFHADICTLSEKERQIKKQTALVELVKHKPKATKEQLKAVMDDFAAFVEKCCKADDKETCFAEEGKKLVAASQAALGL

O=C1SCCC1NC(=O)C(F)(F)F (stereo not drawn)
Active: Albumin [1] | Albumin [2] | Albumin [3]
